According to patent publication US20100260772A1, “METHODS FOR TREATING OR PREVENTING DISEASES ASSOCIATED WITH LOW BONE MASS” (THE TRUSTEES OF COLUMBIA UNIVERSITY IN THE CITY OF NEW YORK, priority 2007, published 2010):

Legend:
[1] = tested on: cfos expression in brain stems; experiment: Leptin injection, cfos expression in brain stem; type: in vivo; details: following leptin injection
From the text: We know that expression of the leptin receptor ObRb is not restricted to hypothalamic neurons and can be found in particular in serotonin-producing neurons of the brainstem that also express Tph2. […] This latter result means that leptin's first site of action in the brain is not, at least as far as controlling bone mass is concerned, the hypothalamus but rather the brainstem where serotonergic neurons are localized.

[2] = tested on: neuropeptides Y (Npy), a leptin target gene in arcuate neurons; experiment: Leptin injection, Npy expression (internal control); type: in vivo, mice; details: same leptin injection
From the text: Next, we injected i.p […] of leptin and studied its effects on Tph2 expression 4 and […]. We also measured the brain concentration of serotonin in leptin knockouts (ob/ob mice). FIG. 5. […] FIG. 15. […] FIG. 5. […] Serotonin neurons in the brain stem have the ObRb receptors that bind to leptin, and they project to the hypothalamus.

[3] = tested on: Tph2 expression in brainstem; experiment: Leptin injection, Tph2 expression in brainstem; type: in vivo, mice

leptin: endogenous polypeptide product of an ob gene
cfos expression in brain stems [1]: increased cfos expression
expression of neuropeptides Y (Npy) [2]: decreased
Tph2 expression in brain stem (in words) ([3]; leptin injection (ICV, FIG. 7)): decreases Tph2 expression
decrease of Tph2 expression in brainstem ([3]; leptin injection i.c.v., FIG. 15): approximately 50%
